In patent US7147824B2, “Method for suppressing growth of mycobacteria in metalworking fluids” (priority 2003, dated 2006):
In brackets after ≈: the same amount, converted by molar mass.

test system: Mycobacterium immunogenum isolate; assay: not given; details: Mycobacterium immunogenum isolate from MWF (ATCC 700506); cited from earlier work

| SMILES | MIC |
| --- | --- |
| C[C@H]1c2cccc(O)c2C(=O)C2=C(O)[C@]3(O)C(=O)C(C(N)=O)=C(O)[C@@H](N(C)C)[C@@H]3[C@@H](O)[C@@H]21 [doxyxycline] | > 128 µg/mL |
| CO[C@@]1(NC(=O)CSCC#N)C(=O)N2C(C(=O)O)=C(CSc3nnnn3C)CS[C@@H]21 [cefinetazole] | 64 µg/mL (≈ 136 µM) |
| CO[C@@]1(NC(=O)Cc2cccs2)C(=O)N2C(C(=O)O)=C(COC(N)=O)CS[C@@H]21 [cefoxitin] | 64 µg/mL (≈ 150 µM) |
| Cc1cc(NS(=O)(=O)c2ccc(N)cc2)no1 [sulfamethoxazole] | > 64 µg/mL |
| NCC[C@H](O)C(=O)N[C@@H]1C[C@H](N)[C@@H](O[C@H]2O[C@H](CN)[C@@H](O)[C@H](O)[C@H]2O)[C@H](O)[C@H]1O[C@H]1O[C@H](CO)[C@@H](O)[C@H](N)[C@H]1O [amikacin] | 128 µg/mL (≈ 219 µM) |

test system: Mycobacterium immunogenum MWF isolates; assay: Anti-mycobacterial activity in MWF, plating on Mycoagar; format: cell-based; details: MCC added to a MWF 24 hours after the isothiazolones had been added
Procedure: The MWFs selected were fluids which had evidence of CMIT incompatibility. The MCC was added to the MWFs 24 hours before the CMIT was added; 24 hours after the CMIT was added; or in a mixture with the CMIT. This was done for each concentration of CMIT (7.5 and 15 ppm) and MCC (250 and 500 ppm). Controls consisted of no biocide and CMIT at 7.5 and 15 ppm. Stability of the isothiazolones was evaluated at time 0 and then after 24 and 48 hours by standard methods for detecting isothiazones. Plating for mycobacteria kill was performed with aliquots from time 0 and 48 hours.
Plating was performed on 100 mm petri dishes containing 20 mL of an appropriate agar. Two different formulations, both based on Plate Count Agar (standard methods for waste and waste water). The medium for recovery of Mycobacterium immunogenum is nutritionally supplemented with TWEEN 80 and glycerin and has three antibiotics (cyclohexamide, chloramphenicol, and gentimicin) to inhibit fungi and unwanted bacteria. This medium with agar is referred to herein as “Mycoagar.”
The MWFs selected were fluids which had evidence of CMIT incompatibility. The MCC was added to the MWFs 24 hours before the CMIT was added at 15 ppm. Stability was evaluated at time 0 and then after 24 and 48 hours by chemical analysis. Plating for mycobacteria kill was performed with aliquots from time O and after 48 hours.

| SMILES | suppressing growth of the Mycobacterium immunogenum genotype |
| --- | --- |
| O=C([O-])CC(O)(CC(=O)[O-])C(=O)O.[Cu+2] [MCC, disodium monocopper (II) citrate] | ineffective |
